Data set [1] deals with 3D7 strain of P. falciparum. As to the kind of experiment: Antimalarial activity, parasite growth in human erythrocytes (YOYO-1 flow cytometry), 3D7 strain. Conditions: Plasmodium falciparum, 3D7, Erythrocyte; 72 hr growth period, eight-point dose-response. The class given is cell-based. How it is done: (§1) Cultures of 3D7 and W2 strains of P. falciparum parasites were grown in purified human erythrocytes and synchronous cultures were placed into 96-well plates containing test compounds. After a 72 hr growth period, cultures were fixed for 1 hr at room temperature in 1% paraformaldehyde and stained with 50 nM YOYO-1 for about 24 hr in the dark. Samples were analyzed on a Becton-Dickinson LSR2 fitted with a microplate reader. Uninfected erythrocytes were used to determine background autofluorescence. Parasite growth in each sample was determined relative to infected erythrocytes without test compound. “Eight-point dose-response curves were generated and EC50 values determined using GRAPHPAD PRISM® software”.
(In general: In flow cytometry, cells or beads pass a laser one at a time.)

Data set [2] concerns W2 strain of P. falciparum. In words: Antimalarial activity, parasite growth in human erythrocytes (YOYO-1 flow cytometry), W2 strain. Format: cell-based. Conditions: Plasmodium falciparum, W2, Erythrocyte; 72 hr growth period, eight-point dose-response. How it is done: as §1
Data set [3] in a line: Fe(II) activation and drug release in vitro (LC/MS). Format: physicochemical. The protocol:
In a series of experiments, the compound of Example 1 (0.03 mM) was incubated with various amounts (0-100 equivalents) of a ferrous iron salt (ferrous bromide) in a 1:1 solution of acetonitrile and an aqueous buffer at ambient temperature. Either of two buffers were used in these studies: pH 5.5 sodium acetate buffer intended to mimic a lysosomal environment or pH 7.4 phosphate buffered saline. At various time points, a 10 μl sample of the incubation mixture was removed and analyzed by liquid chromatography/mass spectroscopy (LC/MS) to identify the expected products of iron-promoted degradation and drug release. A Waters Alliance/ZQ micromass LC/MS system and a 15 min method employing gradient elution with acetonitrile-water mobile phase (containing 0.1% formic acid) was employed. In the absence of ferrous iron salts, the compound of example 1 was stable for 48 hrs, showing no detectable chemical degradation by LC/MS spectroscopy. In the presence of ferrous bromide however, the compound of example 1 was rapidly (less than 1 hour) converted into the expected ketone (analogous to G, FIG. 2) resulting from iron-promoted degradation of the trioxolane ring. Also observed was a signal attributable to the released drug species, 2,5-dichloroaniline.

Data set [4] has as its system W2 strain P. falciparum parasites. In words: Evaluation of drug release in cells: food vacuole phenotype in Giemsa-stained blood smears. To be noted: 24 hrs, ring stage W2 parasites. The class given is cell-based, Plasmodium falciparum. The protocol:
Cmpd 72 is the prodrug form of a parasite cysteine protease inhibitor, specifically an inhibitor of the proteases falcipain-2 and falcipain-3 from the malaria parasite Plasmodium falciparum. […] Thus, observation of the food vacuole phenotype upon treatment of cultured P. falciparum parasites with the protease inhibitor prodrug would constitute positive evidence for release of the free drug inside the parasite.
Synchronized W2 strain P. falciparum parasites (ring stage) were grown as described herein and incubated in the presence of test and control compounds for 24 hrs. Next, a blood smear was made, fixed with methanol, and stained with Giemsa, as known in the art. Parasites were then imaged at 100× magnification to identify the presence or absence of the food vacuole phenotype.

As a reminder, the EC50 is the concentration giving half of the maximal effect. Low values mean greater potency, high ones weaker potency.

As for `O=C(CCC1(CCOC(=O)Nc2cc(Cl)ccc2Cl)OOC2(O1)C1CC3CC(C1)CC2C3)NCCN1CCOCC1` (stereo not drawn) [Cmpd 40, 2-(5,5-spiroadamantyl-3-(3-(2-morpholinoethylamino)-3-oxopropyl)-1,2,4-trioxolan-3-yl)ethyl-2,5-dichlorophenylcarbamate], the half-maximal effective concentration (EC50) in data set [1] is 16 nM; in data set [2], 24 nM. In data set [3] (0.03 mM, in the presence of ferrous bromide, 1:1 acetonitrile and aqueous buffer, ambient temperature), the “time of conversion into the expected ketone (iron-promoted degradation of the trioxolane ring)” value was “less than 1 hour”. In addition, the “stability in the absence of ferrous iron salts (no detectable chemical degradation by LC/MS)” value in data set [3] (48 h, 0.03 mM) is not below 48 h. In addition, in data set [3] (in the presence of ferrous bromide, during the course of the experiment, LC/MS), the “release of drug species 2,5-dichloroaniline” value is reported as “the quantity of 2,5-dichloroaniline increased”.

For `O=C(CCC1(CCOC(=O)N2CCN(c3ccccc3)CC2)OOC2(O1)C1CC3CC(C1)CC2C3)NCCN1CCOCC1` (stereo not drawn) [Cmpd 45, 2-(5,5-spiroadamantyl-3-(3-(2-morpholinoethylamino)-3-oxopropyl)-1,2,4-trioxolan-3-yl)ethyl 4-phenylpiperazine-1-carboxylate], the figures for the EC50 in data set [1] and in data set [2] were 9 nM and 4.9 nM, respectively. As to `CN(Cc1ccccc1)C(=O)OCCC1(CCC(=O)NCCN2CCOCC2)OOC2(O1)C1CC3CC(C1)CC2C3` (stereo not drawn) [Cmpd 47, 2-(5,5-spiroadamantyl-3-(3-(2-morpholinoethylamino)-3-oxopropyl)-1,2,4-trioxolan-3-yl)ethyl benzyl(methyl)carbamate], the concentration giving a half-maximal response (EC50) in data set [1] was 16 nM; in data set [2], 15 nM. For `O=C(CCC1(CCOC(=O)N(CCCNc2ccnc3cc(Cl)ccc23)Cc2ccco2)OOC2(O1)C1CC3CC(C1)CC2C3)NCCN1CCOCC1` (stereo not drawn) [Cmpd 48, 2-(5,5-spiroadamantyl-3-(3-(2-morpholinoethylamino)-3-oxopropyl)-1,2,4-trioxolan-3-yl)ethyl 3-(7-chloroquinolin-4-ylamino)propyl(furan-2-ylmethyl)carbamate] the same measures were 38 nM and 62 nM. Consider `O=C(CCC1(CCO)OOC2(O1)C1CC3CC(C1)CC2C3)NCCCN1CCCC1=O` (stereo not drawn) [Cmpd 58, 3-(3-(2-hydroxyethyl)-5,5-spiroadamantyl-1,2,4-trioxolan-3-yl)-N-(3-(2-oxopyrrolidin-1-yl)propyl)propanamide], for which the “food vacuole phenotype (falcipain inhibition)” value in data set [4] (1.1 uM, FIG. 3C-E) is given as “does not produce the protease-inhibited phenotype”.

For `CC(C)(C[C@H](NC(=O)N1CCOCC1)C(=O)N[C@H](/C=C/S(=O)(=O)c1ccccc1)CCc1ccccc1)OC(=O)OCCC1(CCC(=O)NCCCN2CCCC2=O)OOC2(O1)C1CC3CC(C1)CC2C3` (stereo partly drawn) [Cmpd 72], the “food vacuole phenotype (falcipain inhibition)” value in data set [4] (1.1 uM, FIG. 3C-E) is reported as “does produce the falcipain-inhibited phenotype”. With `CC(C)C[C@H](NC(=O)[C@H]1O[C@@H]1C(=O)O)C(=O)NCCCCN=C(N)N` [E64, reference compound], the “food vacuole phenotype (falcipain inhibition)” value in data set [4] (3.3 uM, FIG. 3B) was “swollen, dark-staining food vacuole”.

`CC(C)(O)C[C@H](NC(=O)N1CCOCC1)C(=O)N[C@H](/C=C/S(=O)(=O)c1ccccc1)CCc1ccccc1` [N—((S)-4-hydroxy-4-methyl-1-oxo-1-((S,E)-5-phenyl-1-(phenylsulfonyl)pent-1-en-3-ylamino)pentan-2-yl)morpholine-4-carboxamide, reference compound]: the “food vacuole phenotype (falcipain inhibition)” value in data set [4] (1.1 uM, FIG. 3C-E) is reported as “swollen, dark-staining food vacuole”.

These data come from patent publication US8618096B2, “Prodrug compositions and methods for using the same in treating cancer and malaria” (The Regents of the University of California, priority 2008, dated 2013).
